Measured values published in US20180200331A1, “BST-2 AS A THERAPEUTIC TARGET AND DIAGNOSTIC MARKER FOR BREAST CANCER GROWTH AND METASTASIS” (University of Iowa Research Foundation, priority 2015, published 2018).
Like-named read-outs stand apart in the source and are kept apart here. No end group written: not given here.

Columns and labels:
Claudin-6 (CLDN6) [1] = assay: 5-azacytidine treatment, CLDN6 RT-qPCR; format: cell-based, human; settings: HMLE, MCF-7, SK-BR-3, MDA-MB-231 cells, 1 uM for 5 days
Procedure: (§1) Human normal and breast cancer cell lines were plated at 150,000 cells/well in a 6-well plate and treated with DMSO (vehicle) or 1 μM of 5-azacytidine (5-azaC, Sigma Aldrich) for 5 days. Cells were lifted using Versene (a gentle cell dissociator, Life Technologies), washed with PBS, pelleted and stored at −20° C. until required for analysis. RNA was isolated from frozen cells using the RNeasy mini kit (Qiagen) according to manufacturer's instructions. Equivalent amounts of RNA were treated with DNase (Qiagen). A portion of RNA was subjected to cDNA synthesis (ABI) as previously described. RNA concentration and purity were assessed at 260/280 nm using the spectrophotometer. Using synthesized cDNA, sequence-specific primers were used to amplify BST-2 [4] and GAPDH [13,48]. Claudin-6 was amplified with (F: […], R: […]) primer pair. RT-qPCR was carried out with an ABI 7500 FAST thermal cycler in triplicates as previously described.

BST-2 [2] = assay: 5-azacytidine treatment, BST-2 RT-qPCR and flow cytometry; format: cell-based, human; settings: 1 uM for 5 days
Procedure: Cell lines of interest were plated at 150,000 cells/well in a 6-well plate and treated with DMSO (vehicle) or 1 μM of 5-azacytidine (5-azaC, Sigma Aldrich) for 5 days. Cells were harvested using 0.25% trypsin-EDTA (Mediatech, Corning, N.Y., USA). Post-incubation, 8 ml of 10% FBS-containing RPMI media (Life Technologies) was added and cells were centrifuged. Media was aspirated and individual cells were resuspended in 2% FBS-containing PBS (Life Technologies). Cell suspension was passed through a […] cell strainer (Falcon). Cells were incubated at 4° C. for 1 hour with APC-conjugated anti-BST-2 primary antibodies or appropriate IgG (Ebioscience) and washed with 1×PBS. After washing, cells were incubated with the fluorescent intercalator-7-aminoactinomycin D (7-AAD) (BioLegend) at 4° C. for 30 minutes to exclude dead cells. Stained cells were quantified using a FACS Calibur flow cytometer (BD). 10,000 events were collected per sample and FACS data were analyzed and plotted using Flowjo software (TreeStar).
as §1

Claudin-6 (CLDN6) [3] = settings: all cell types, GEO datasets; cited from earlier work
BST-2 [4] = settings: cited from earlier work
MDA-MB-231 cells = assay: Cancer cell to cancer cell adhesion assay on MDA-MB-231 shControl monolayers; format: cell-based, human; settings: monolayers blocked with 200 ng/well for 4 hours; adhesion 4 hours
Procedure: FIG. 46. […] Moreover, MDA-mb-231 SHcONTROL CELLS WERE ADDED TO mda-mb-231 ShBST-2 monolayers (on shBST-2). (Each data point corresponds to six different wells analyzed. Error bars correspond to SEM. Significance was taken at P<0.0005*** or P<0.0001****.
MDA-MB-231 cells expressing shBST-2 or shControl were plated to confluency in a 96-well plate. MDA-MB-231 shControl cells were blocked with water (Vehicle), 200 ng/well of recombinant BST-2 (Sino Biological Inc.), 200 ng/well of B49 peptide or 200 ng of B49nc peptide for 4 hours. Wells were washed twice with PBS and then PKH67 labeled MDA-MB-231 shControl cells were added to wells at 25,000 cells/well. Cells were allowed to adhere for 4 hours at 37° C. Non-adhered cells were washed off with PBS and plates were read at 485 nm/535 nm (excitation/emission) wavelengths using a Tecan Infinite M200 Pro plate reader (Tecan). Values are represented as relative fluorescence intensity (RFI).

Half-life of B49nc = assay: Half-life of B49nc
Description: We generated a truncated form of B49 called “B49nc” having the sequence […] (SEQ ID NO:14).

E0771 cells [5] = assay: Boyden chamber assay; format: cell-based, mouse; settings: 20 hours
Procedure: The apical chamber of 24-well cell culture inserts (Merck Millipore, Billerica, Mass., USA) were seeded with previously starved sh137, sh413 or shControl transduced E0771 cells (150,000) in serum-free medium. Culture medium containing 30% FBS was added to the basal chamber of the unit and cells were allowed to migrate through the membranous barrier for 20 hours at 37° C. Non-migrated cells were washed off, migrated cells were fixed with 4% PFA for 5 minutes, washed twice with 1×PBS, permeabilized with 100% methanol for 25 minutes, labeled with Giemsa stain (for 15 minutes at room temperature) and imaged using a Nikon Eclipse Ti microscope adjusted with an X-cite series 120 LED fluorescence microscope light source and a Nikon digital sight camera. Images were processed using Image J software. Cells from five different fields were counted and averaged.

E0771 or 4T1 cells = assay: Cell invasion assay (Matrigel); format: cell-based, mouse; settings: 24 h
Procedure: The apical chamber of 24-well cell culture inserts (Merck Millipore) were coated with 3 mg/ml of Matrigel (100 μl) (Sigma-Aldrich) and allowed to solidify for 5 hours. A total of 100,000 sh413- or shControl-transduced E0771 or 4T1 cells in serum-free medium were plated on top of the Matrigel layer. Culture medium containing 10% FBS and 5 μg/ml fibronectin (adhesive substrate) (Sigma-Aldrich) was added to the basal chamber of the unit (600 μl) and cells were allowed to invade through the membranous barrier for 24 hours at 37° C. Noninvasive cells were washed off; invasive cells were fixed with 4% PFA, permeabilized with 100% methanol, labeled with Giemsa stain and imaged as described in the previous paragraph. Images were processed using Image J software. Cells from five different fields were counted and averaged.

mammary cancer cells [6] = assay: Transformation assay (soft agar colony formation); format: cell-based, mouse; settings: compared to shControl
Procedure: Agar was mixed in Roswell Park Memorial Institute medium (RPMI) with 20% FBS. A total of 500 μl of 0.5% agar was added to 24-well plate and allowed to solidify. Cells were plated at 1,250 cells/well in 500 μl of 0.35% agarose. Some 250 μl of the appropriate growth medium was added on top of the agarose layer. Growth medium was replaced twice a week. Colonies were stained with crystal violet and imaged. Colonies from five different fields were counted and averaged.

mammary cancer cells [7] = assay: Scratch assay; format: cell-based, mouse; settings: 6 h and 24 h
Procedure: Confluent monolayers of cancer cells plated in 12-well plates were scratched using a pipette tip. Fresh medium was added to the wells. Cells were allowed to migrate for 0, 6 or 24 hours before fixation (4% paraformaldehyde (PFA) for 45 minutes). Fixed cells were washed (1×PBS) and imaged with a Nikon Eclipse Ti microscope adjusted with a Nikon digital sight camera (Nikon, Tokyo, Japan). Images were processed and migrated cells counted using Image J software.

BST-2 [8] = assay: shRNA knockdown of BST-2 in E0771 and 4T1 cells; format: cell-based, mouse; settings: E0771 and 4T1 cells stably transduced
Description: E0771 and 4T1 cells were stably transduced with a construct expressing LV-CMV-firefly luciferase or an empty vector construct using lipofectamine following the manufacturer's instructions (Life Technologies, Carlsbad, Calif., USA). Stable transfectants were then transduced with lentiviral particles carrying BST-2-targeting sh137: CCGGC […] (SEQ ID NO:3); sh413: […] TTCTCAAGCTTTTTG (SEQ ID NO:4); or a non-targeting shControl: […] (SEQ ID NO:5) using a previously described protocol. Stable cells were generated by selection with the appropriate drug. The short hairpin RNA (shRNA) constructs were purchased from Sigma-Aldrich (St Louis, Mo., USA) (SHCLND-NM_198095) and lentiviral particles were generated at the Gene Transfer Vector Core at the University of Iowa.
Cell monolayers were washed with PBS and treated with Versene (Life Technologies). […] Stained cells were quantified using a FACSCalibur flow cytometer (BD Biosciences, San Jose, Calif., USA). […] Fluorescence-activated cell sorting (FACS) data were analyzed by Flowjo software (TreeStar, Ashland, Oreg., USA). […]
Western blots were performed as previously described. […] Band detection and quantification were carried out with the Odyssey Infrared Imaging System (LI-COR Biosciences, Lincoln, Nebr., USA).

E0771 cells [9] = assay: MTT assay, E0771; format: cell-based, mouse
Procedure: A total of 5,000 cells stably expressing sh137, sh413, or shControl were plated in 96-well plates. Cells were then incubated with 5 mg/ml MTT reagent for 3.5 hours followed by addition of MTT solvent (0.1% NP-40 and 4 mM HCl in isopropanol) and rocking for 15 minutes. Absorbance at 590 nm was read using a Tecan Infinite M200 Pro plate reader.

E0771 and 4T1 cells = assay: BrdU assay; format: cell-based, mouse
Procedure: A total of 5,000 cells were plated in 96-well plates for 24 hours. Bromodeoxyuridine or 5-bromo-2′-deoxyuridine (BrdU) (Calbiochem, Billerica, Mass., USA) assay was carried out according to the manufacturer's instructions. Absorbance at 450 nm was read using a Tecan Infinite plate reader. In parallel, 150,000 cells were plated in 24-well plates for 24 hours. Cells were incubated with BrdU label (1:2000) for 20 hours, treated with a fixative/denaturing solution (30 minutes) and incubated with an anti-BrdU antibody (1:1000) and rat anti-mouse BST-2 antibody (1:200, eBioscience) for 1 hour at room temperature. Cells were washed and incubated with Alexa Fluor 594 anti-rat (Invitrogen, Waltham, Mass., USA) and Alexa Fluor 488 anti-mouse (Invitrogen) secondary antibodies for 30 minutes at room temperature. Cells were stained with 4′,6-diamidino-2-phenylindole (DAPI)-containing Vectashield (Vector Laboratories, Burlingame, Calif., USA) and imaged using a Zeiss 710 confocal microscope (Carl Zeiss, Oberkochen, Germany). Images were processed using Image J software. BrdU label, fixative/denaturing solution, and anti-BrdU antibody were from BrdU (Calbiochem) assay.

Molecule: Nc1ncn([C@@H]2O[C@H](CO)[C@@H](O)[C@H]2O)c(=O)n1 [5-AzaC, 5-azacytidine]
- CLDN6 mRNA level (Claudin-6 (CLDN6) [1]): induced in all cell types
- BST-2 levels (RNA and protein) (BST-2 [2]; HMLE cells): significant increase
- BST-2 levels (RNA and protein) (BST-2 [2]; MCF-7 cells): significant increase
- BST-2 mRNA and protein levels (BST-2 [2]; MDA-MB-231 cells): unchanged
- BST-2 mRNA and protein levels (BST-2 [2]; SK-BR-3 cells): unchanged

Molecule: Nc1ncn([C@H]2C[C@H](O)[C@@H](CO)O2)c(=O)n1 [DAC, 2′-deoxy-5-azacytidine]
- CLDN6 mRNA levels (Claudin-6 (CLDN6) [3]): induced in all cell types
- BST-2 mRNA expression (BST-2 [4]; HB2 cells, GEO GSE28976): increased BST-2 mRNA expression
- BST-2 mRNA expression (BST-2 [4]; MCF-7 cells, GEO GSE36683): increased BST-2 mRNA expression
- BST-2 levels (BST-2 [4]; MDA-MB-231 cells, GEO GSE28976): did not show any increase
- BST-2 levels (BST-2 [4]; SK-BR-3 cells, GEO GSE28976): did not show any increase

Molecule: TIKANSEACRDGLRAVMECRNVTHLLQQELTEAQKGFQDVEAQAATCNHTVMA (cysteines drawn unpaired) [B49nc]
- cancer cell adhesion (relative fluorescence intensity) (MDA-MB-231 cells): inhibits cancer cell adhesion
- half-life (Half-life of B49nc): ~20 h

Molecule: sh137: BST-2-targeting shRNA (SEQ ID NO:3), delivered by lentiviral particles (CCGGCGCGATCTTGGTGGTCCTGTTCTCGAGAACAGGACCACCAAGATCGCGTTTTTG)
- rate of cell migration (Boyden chamber) (E0771 cells [5]): significantly reduced rate of cell migration
- invasion through Matrigel (E0771 or 4T1 cells): reduced the ability of the cells to invade the basement membrane
- colony numbers in soft agar (mammary cancer cells [6]): reduced colony numbers
- migration into scratch wound (mammary cancer cells [7]): showed some migration
- BST-2 expression (BST-2 [8]): reduced BST-2 expression
- cell viability (MTT) (E0771 cells [9]): equally viable
- cell proliferation (BrdU incorporation) (E0771 and 4T1 cells): no effect on cell proliferation
